Patent US20030207886A1, “Preparation containing quinoxaline derivatives” (priority 2000, published 2003)

Assay: Maxima of UV-A and UV-B absorption of quinoxaline derivatives in 2-propanol
Assay type: physicochemical
Conditions: 1 mg of substance per 100 ml of solvent; for UV-B (280 320 nm) Max. abs.: absorbance at UV-B maximum; for UV-B (280 320 nm) λ [nm]: wavelength of UV-B maximum; for UV-A (400 320 nm) Max. abs.: absorbance at UV-A maximum; for UV-A (400 320 nm) λ [nm]: wavelength of UV-A maximum
Method: The measurement was carried out in 2-propanol at a concentration of 1 mg of substance per 100 ml of solvent.

SMILES	UV-B (280 320 nm) Max. abs.	UV-B (280 320 nm) λ [nm]	UV-A (400 320 nm) Max. abs.	UV-A (400 320 nm) λ [nm]
O=C(c1ccccc1)c1cnc2ccccc2n1	0.330	300.0		
CC(C)c1ccc(C(=O)c2nc3ccccc3nc2C(=O)c2ccc(C(C)C)cc2)cc1	0.45	280.0		
Brc1cnc2ccccc2n1			0.4424	321.0 nm
Cc1ccc(S(=O)(=O)c2cnc3ccccc3n2)cc1			0.1595	321.0 nm
O=C(O)c1ccc(Nc2cnc3ccccc3n2)cc1	1.141	297.2	0.378	374.1 nm
Clc1ccc(Nc2cnc3ccccc3n2)c(Cl)c1	0.757	280.7	0.248	365.2 nm
CCOC(=O)CCC(NC(=O)c1ccc(Nc2cnc3ccccc3n2)cc1)C(=O)OCC (stereo not drawn)	0.756	307.0	0.3076	380.0 nm
O=c1[nH]c2ccccc2nc1-c1ccccc1	0.373	305.0	0.360	365.0 nm
COc1ccc(Nc2cnc3ccccc3n2)cc1	0.837	291.1	0.306	386.9− nm
Nc1nc2ccccc2nc1NC(=O)c1cc(C(F)(F)F)cc(C(F)(F)F)c1			0.4130	354.0 nm
CC(C)c1ccc(/C=C/C(=O)c2cnc3ccccc3n2)cc1			0.7731	343.0 nm
c1ccc2nc(-c3cnc4ccccc4n3)cnc2c1			0.7687	341.0 nm
Brc1ccc2nc3nc4ccccc4nc3n2c1			0.4113	354 nm
